Measurements from patent publication US10905704B2, “Agents and methods using thereof for the prevention and treatment of stem cell muscle disorders” (ECOLE POLYTECHNIQUE FEDERALE DE LAUSANNE (EPFL), priority 2015, dated 2021).

Legend:
C2C12 myoblasts = experiment: Western blot of senescence and apoptosis markers in C2C12 myoblasts; assay type: cell-based, mouse; conditions: late passage C2C12 myoblasts, 6-hour NR treatment
Method: Cell culture and treatments. FACS sorted MuSCs were grown on a 10% Matrigel (Corning)-coated dish and flasks with Fams F-10 media (Gibco), supplemented with 20% fetal bovine serum (FBS, Gibco), 2.5 ng/ml basic fibroblast growth factor (bFGF, Sigma) and penicillin/streptomycin (1×, Gibco). Dishes were coated with 10% growth factor-free Matrigel solution on ice for 7 min then transferred to a 37° C. cell culture incubator overnight before use. Cells were grown for three generations in vitro before experiments with cells plated and passaged at 10^3 cells/ml and 50% confluencies, respectively. C2C12 mouse myoblasts were grown in DMEM (4.5 g/1 glucose, Gibco) supplemented with 10% FBS and penicillin/streptomycin (1×, Gibco). Western blotting. C2C12 cells were lysed in a buffer composed of 50 mM Tris, 150 mM KCl, EDTA 1 mM, NP40 1%, nicotinamide 5 mM, sodium butyrate 1 mM and protease inhibitors cocktail (Roche) at pH 7,4. Proteins were separated by SDS-PAGE and transferred onto nitrocellulose membranes. Blocking and antibody incubations were performed in 3% BSA. The following primary antibodies were used: anti-cleavage caspase 3 (Cell Signalling); Anti-γH2AX (Millipore); anti-β-actin (Sigma). All secondary antibodies were from Jackson Immunoresearch. […]

MuSCs = experiment: Gene expression analyses (qPCR) in freshly isolated MuSCs of NR-treated mice; assay type: cell-based, C57BL/6J mice
Method: Gene expression analyses. Total RNA was extracted from MuSCs by sorting cells directly into TriPure RNA isolation reagent (Roche) or from cultured C2C12 myoblasts using TriPure reagent according to the product manual. Total RNA was transcribed to cDNA using QuantiTect Reverse Transcription Kit (Qiagen). Expression of selected genes was analyzed using the LightCycler480 system (Roche) and LightCycler® 480 SYBR Green I Master reagent (Roche). The acidic ribosomal protein 36b4 gene (ribosomal protein, large, P0, Rp1p0) was used as housekeeping reference. FACS based muscle stem cell isolation. Gastrocnemius, soleus, quadriceps, and tibialis anterior muscles from both limbs were excised and transferred into PBS on ice. All muscles were trimmed, minced and digested with 0.1 mg/ml of type II collagenase (Sigma) in PBS for 15 min at 37° C. Samples were then centrifuged at 750 g for 5 min and further digested in 1 mg/ml of collagenase/dispase (Roche) for 30 mins at 37° C. Muscle slurries were sequentially filtered through 100, 70 and 40 μm cell strainers. The isolated cells were then washed in washing buffer (PBS+2.5% FBS) then resuspended in 200 μl of washing buffer and immediately stained with antibodies, including the MuSC markers CD31 (1:800, eBioscience, eFluor450 conjugated); CD34 (1:200, eBioscience, eFluor660 conjugated); CD45 (1:200, eBioscience, eFluor450 conjugated); CD11b (1:400, eBioscience, eFluor450 conjugated); Sca-1 (1:1000, eBioscience, PE-Cy7 conjugated); and α7 integrin (1:300, MBL) for 30 min at 4° C. Secondary staining was performed with a mixture of goat anti-mouse antibody (1:800, Life technologies, Alexa Fluor 488 conjugated) and propidium Iodide (PI, Sigma) for 15 min at 4° C. in the dark. Stained cells were analysed and sorted using the FACSAria II instrument (BD Biosciences). Debris and dead cells were excluded by forward scatter, side scatter and PI gating. Cells were sorted either directly on slides for immunostaining and into TriPure (Roche) reagent for RNA extraction.

muscle = experiment: Cardiotoxin-induced muscle damage in NR-treated Mdx mice; assay type: in vivo
Method: Cardiotoxin-induced muscle damage. Animals were anesthetized using Isoflurane in oxygen from a precision vaporizer. 50 μl of 20 μM Naje mossambica mossambica cardiotoxin (Sigma) was injected intramuscularly cross the skin and directly into the tibialis anterior (TA) muscle. Mice were sacrificed at 7 and 14 days after injury. TA muscles were immediately embedded in Thermo Scientific™ Shandon™ Cryomatrix™ and frozen in isopentane, cooled in liquid nitrogen, for 2 mins before being transferred to dry ice and stored at −80° C.
Histology. TA muscles were harvested from anaesthetized mice and immediately frozen in Tissue-TEK® OCT compound (PST). 8-μm cryosections were collected and fixed with 4% paraformaldehyde, which are either stained with haematoxylin/eosin (HE) or antibodies. For immunostainings, heat activated antigen retrieval was performed in pH 6.0 citrate buffer for 10 min at 65° C. After washing with PBS-0.1% tween 20 (PBST), the sections were blocked with 10% affinipure Fab goat anti mouse IgG (Jackson Immunoresearch) in PBST for 60 min and PBST containing 2% BSA and 5% goat serum for 30 min at room temperature. Primary antibodies were then applied over night at 4° C. The following antibodies were used: anti-eMHC (Developmental Studies Hybridoma Bank, DSHB, University of Iowa), anti-Pax7 (DSHB, University of Iowa), anti-Laminin (Sigma). […]

[1] = freshly isolated aged MuSCs, NR diet, FIG. 4H

NC(=O)c1ccc[n+]([C@@H]2O[C@H](CO)[C@@H](O)[C@H]2O)c1 [NR, nicotinamide riboside]
expression of cell senescence and apoptosis markers (γH2AX, cleaved caspase3) (C2C12 myoblasts): reduced the expression of cell senescence and apoptosis markers | mitochondrial TCA and OXPHOS gene expression (MuSCs; aged MuSCs, NR diet, FIG. 4I): largely rescued | expression of cell cycle related genes (MuSCs; [1]): increasing the expression of cell cycle related genes | mRNA levels of CDKN1A and related senescence indicators (MuSCs; [1]): significantly reduced | Phb1 and Phb2 expression (MuSCs; young and aged MuSCs, NR 400 mg/kg/day 6 weeks, FIG. 5B): induced Phb1 and Phb2 expression | regenerated muscle fibers (eMyHC) (muscle; 7 days after CTX, FIG. 6F): increase in regenerated muscle fibers | CTX-induced muscle regeneration (H/E) (muscle; 7 days of recovery, FIG. 6L): muscle regeneration was improved
